# Assay results published in patent US20130316374A1, “BREAST CANCER DIAGNOSTICS” (IMBA - INSTITUT FUR MOLEKULARE BIOTECHNOLOGIE GMBH, priority 2010, published 2013).
# How the values were obtained:
# RANKL = RANKL expression in purified mammary epithelial cells (qRT-PCR, Western blot); assay type: in vivo, mouse; details: nulliparous wild type females, 3 days after implantation/oral gavage
# Procedure: a,b, MPA induces RANKL expression in mammary epithelial cells. Nulliparous wild type females were treated with oral gavage of DMBA or oil vehicle, s.c. implanted with slow-release MPA pellets, or treated with sham surgery. a, RANKL mRNA was determined in purified mammary epithelial cells by qRT-PCR 3 days after implantation/oral gavage. Data are shown as fold change compared to sham treatment+/−sem. n=3 mice per group. b, Expression of soluble (s) RANKL protein (19 kDa) was assayed on cell lysates from purified mammary epithelial cells by Western blot 3 days after treatment with oil vehicle, DMBA, MPA, or sham surgery. β-actin is shown as a loading control. […] Data are shown as percentage of tumor-free mice after the last DMBA challenge. No significant difference was found between the Cre+ and the Cre− control groups. Median tumor onset for Cre^+ controls was 9 days, for Cre^− controls 11 days, and for RANK^Δmam females 30 days after the last DMBA treatment. d, Representative Southern blot of MPA/DMBA-induced mammary tumors derived from RANK^flox/+; MMTV-Cre+ and RANK^flox/Δ; MMTV-Cre+ (RANK^Δmam) females. […]
# Total RNA of tumors was prepared using the RNeasy Mini Kit (Qiagen), according to the manufacturer's instructions. Total RNA (2 μg) was subjected to quantitative (q)RT-PCR analysis. […]
# mammary epithelial cells = assay: γ-irradiation induced mammary epithelial cell apoptosis in vivo (active Caspase 3); parameters: species or system mouse; details: 5 Gray
# Procedure: a, Western blotting for phosphorylated (P) IKKα, total IKKα, phosphorylated (P) p65 NFκB, total p65 NFκB, phosphorylated (P) IκBα, and total IκBα in isolated primary mouse mammary gland epithelial cells (MECs) in response to RANKL stimulation (1 μg/ml). […] Expression was determined by qRT-PCR. […] Apoptosis was detected by immunostaining for active Caspase 3. f, Apoptotic nuclei of epithelial cells (arrows) are shown for representative mammary gland sections. Magnifications ×40. g, Quantification of mammary epithelial apoptosis. A minimum of 5000 nuclei was counted for each mouse. […]
# a,b, Reduced induction of mammary epithelial cell apoptosis in response to γ-irradiation in IKKαhu Δmam females. […] 24 hours after irradiation, apoptosis was detected by immunostaining for active Caspase 3. a, Apoptotic nuclei of epithelial cells (arrows) are shown for representative mammary gland sections. Magnifications ×40. b, Quantification of mammary epithelial apoptosis. A minimum of 5000 nuclei was counted for each mouse. […]
# For histological analysis, 5 μm sections were cut and stained with hematoxylin and eosin (H&E). […] Histomorphometric indices (proliferation and apoptosis) were calculated as the number of positive epithelial cells divided by the total number of epithelial cells, with no fewer than 1000 nuclei for Ki67 stainings and no fewer than 5000 cells for active Caspase 3 staining counted per section. […]
compound,measurement,setting,value
"CC(=O)O[C@]1(C(C)=O)CC[C@H]2[C@@H]3C[C@H](C)C4=CC(=O)CC[C@]4(C)[C@H]3CC[C@@]21C [MPA, medroxyprogesterone acetate]",RANKL mRNA and protein expression in mammary epithelial cells,RANKL,induced RANKL mRNA and protein expression
same,γ-irradiation-induced apoptosis of mammary epithelial cells,"mammary epithelial cells; control females, MPA pellet",protected from γ-irradiation-induced apoptosis
same,protective effects of MPA on γ-irradiation-induced cell death,mammary epithelial cells; loss of RANK expression on mammary epithelial cells (RANK^Δmam),abrogated
